Experimental data from patent publication US8178506B2, “Oligomeric compounds and compositions for use in modulation of small non-coding RNAs” (Regulus Therapeutics Inc., priority 2003, dated 2012).
Several values for one entry are separate records, joined by “and”; a condition that tells them apart may be missing. Identical values can stand only once. In the oligonucleotide strings, read from the 5' end, every base follows the letter of its sugar. An asterisk marks phosphorothioate; unmarked linkages are phosphodiester. Other units and linkages are bracketed, terminal groups are in braces. A string of capitals states the bases alone. e = 2'-O-(2-methoxyethyl) (MOE); [5mC] = 5-methylcytosine

Test system: HeLa cells
Assay: Cell cycle assay in HeLa cells
Assay type: cell-based, human
Settings: HeLa cells
[1] = 25 nM, 48 hours, percentage of cells in phase, average of replicates
[2] = 50 nM, 48 hours, percentage of cells in phase, average of replicates
[3] = 100 nM, 48 hours, percentage of cells in phase, average of replicates
[4] = 150 nM oligomeric compound, 24 hours, relative to untreated control (UTC = 100)
[5] = 150 nM oligomeric compound, 48 hours after treatment, relative to untreated control (UTC=100)
[6] = 150 nM, 48 hours, relative to untreated control
[7] = 150 nM, 48 hours, percentage of cells in phase, average of replicates

327902 (antisense eG*eG*e[5mC]*eT*eG*eT*e[5mC]*eA*eA*eT*eT*e[5mC]*eA*eT*eA*eG*eG*eT*e[5mC]*eA*eG) [compound 327902]
% cells in cell cycle phase: G2/M (25 nM, 48 hours): 19% | % cells in cell cycle phase: G1 [1]: 57% | % cells in cell cycle phase: S [1]: 23% | % cells in cell cycle phase: aneuploid [1]: 13% | % cells in cell cycle phase: subG1 [1]: 1.6% | % cells in cell cycle phase: G2/M (50 nM, 48 hours): 20% | % cells in cell cycle phase: G1 [2]: 51% | % cells in cell cycle phase: S [2]: 30% | % cells in cell cycle phase: aneuploid [2]: 14% | % cells in cell cycle phase: subG1 [2]: 2.4% | % cells in cell cycle phase: G2/M (100 nM, 48 hours): 27% | % cells in cell cycle phase: G1 [3]: 43% | % cells in cell cycle phase: S [3]: 30% | % cells in cell cycle phase: aneuploid [3]: 11% | % cells in cell cycle phase: subG1 [3]: 3.1% | % cells aneuploid [4]: 66% and 98% | % cells in cell cycle phase G1 [4]: 57% and 44% | % cells in cell cycle phase G2/M [4]: 176% and 163% | % cells in cell cycle phase S [4]: 106% and 121% | % cells in cell cycle phase subG1 [4]: 178% and 175% | % cells in cell cycle phase: G1 [5]: 39% and 44% | % cells in cell cycle phase: G2/M [5]: 208% and 205% | % cells in cell cycle phase: S [5]: 171% and 166% | % cells in cell cycle phase: aneuploid [5]: 81% and 87% | % cells in cell cycle phase: G2/M (150 nM, 48 hours): 28% | % cells in cell cycle phase G1 [6]: 108% | % cells in cell cycle phase G2/M [6]: 93% | % cells in cell cycle phase S [6]: 96% | % cells in cell cycle phase aneuploid [6]: 162% | % cells in cell cycle phase subG1 [6]: 94% | % cells in cell cycle phase: G1 [7]: 36% | % cells in cell cycle phase: S [7]: 36% | % cells in cell cycle phase: aneuploid [7]: 12% | % cells in cell cycle phase: subG1 [7]: 6.3%

327877 (antisense e[5mC]*eG*e[5mC]*e[5mC]*eA*eA*eT*eA*eT*eT*eT*eA*e[5mC]*eG*eT*eG*e[5mC]*eT*eG*e[5mC]*eT*eA) [compound 327877]
% cells aneuploid [4]: 62% | % cells in cell cycle phase G1 [4]: 107% | % cells in cell cycle phase G2/M [4]: 159% | % cells in cell cycle phase S [4]: 66% | % cells in cell cycle phase subG1 [4]: 154% | % cells in cell cycle phase: G1 [5]: 59% | % cells in cell cycle phase: G2/M [5]: 168% | % cells in cell cycle phase: S [5]: 152% | % cells in cell cycle phase: aneuploid [5]: 80% | % cells in cell cycle phase: subG1 [5]: 755%

327897 (antisense eA*e[5mC]*eA*eG*eG*e[5mC]*e[5mC]*eG*eG*eG*eA*e[5mC]*eA*eA*eG*eT*eG*e[5mC]*eA*eA*eT*eA) [compound 327897]
% cells aneuploid [4]: 69% and 54% | % cells in cell cycle phase G1 [4]: 114% and 128% | % cells in cell cycle phase G2/M [4]: 115% and 100% | % cells in cell cycle phase S [4]: 80% and 74% | % cells in cell cycle phase subG1 [4]: 143% and 180% | % cells in cell cycle phase: G1 [5]: 100% and 94% | % cells in cell cycle phase: G2/M [5]: 95% and 105% | % cells in cell cycle phase: S [5]: 103% and 114% | % cells in cell cycle phase: aneuploid [5]: 84% and 63% | % cells in cell cycle phase: subG1 [5]: 134% and 125%

328119 (antisense eA*eA*eT*eA*eA*e[5mC]*eA*e[5mC]*eA*e[5mC]*eA*eT*e[5mC]*e[5mC]*eA*e[5mC]*eT*eT*eT*eA*eA) [compound 328119]
% cells aneuploid [4]: 83% | % cells in cell cycle phase G1 [4]: 100% | % cells in cell cycle phase G2/M [4]: 112% | % cells in cell cycle phase S [4]: 94% | % cells in cell cycle phase subG1 [4]: 75% | % cells in cell cycle phase: G1 [5]: 75% | % cells in cell cycle phase: G2/M [5]: 124% | % cells in cell cycle phase: S [5]: 145% | % cells in cell cycle phase: aneuploid [5]: 81% | % cells in cell cycle phase: subG1 [5]: 767%

327885 (antisense eA*e[5mC]*eT*eA*e[5mC]*e[5mC]*eT*eG*e[5mC]*eA*e[5mC]*eT*eG*eT*eA*eA*eG*e[5mC]*eA*e[5mC]*eT*eT*eT*eG) [compound 327885]
% cells aneuploid [4]: 55% | % cells in cell cycle phase G1 [4]: 129% | % cells in cell cycle phase G2/M [4]: 121% | % cells in cell cycle phase S [4]: 63% | % cells in cell cycle phase subG1 [4]: 151% | % cells in cell cycle phase: G1 [5]: 78% | % cells in cell cycle phase: G2/M [5]: 133% | % cells in cell cycle phase: S [5]: 129% | % cells in cell cycle phase: aneuploid [5]: 76% | % cells in cell cycle phase: subG1 [5]: 456%

327892 (antisense eA*e[5mC]*eT*eT*eT*e[5mC]*eG*eG*eT*eT*eA*eT*e[5mC]*eT*eA*eG*e[5mC]*eT*eT*eT*eA) [compound 327892]
% cells aneuploid [4]: 80% | % cells in cell cycle phase G1 [4]: 86% | % cells in cell cycle phase G2/M [4]: 103% | % cells in cell cycle phase S [4]: 111% | % cells in cell cycle phase subG1 [4]: 153% | % cells in cell cycle phase: G1 [5]: 74% | % cells in cell cycle phase: G2/M [5]: 129% | % cells in cell cycle phase: S [5]: 150% | % cells in cell cycle phase: aneuploid [5]: 79% | % cells in cell cycle phase: subG1 [5]: 121%

328115 (antisense eA*eG*eA*eA*eG*eG*eT*eG*eG*eG*eG*eA*eG*e[5mC]*eA*eG*e[5mC]*eG*eT*e[5mC]*eA) [compound 328115]
% cells aneuploid [4]: 59% | % cells in cell cycle phase G1 [4]: 90% | % cells in cell cycle phase G2/M [4]: 147% | % cells in cell cycle phase S [4]: 87% | % cells in cell cycle phase subG1 [4]: 177% | % cells in cell cycle phase: G1 [5]: 92% | % cells in cell cycle phase: G2/M [5]: 107% | % cells in cell cycle phase: S [5]: 114% | % cells in cell cycle phase: aneuploid [5]: 86% | % cells in cell cycle phase: subG1 [5]: 195%

327896 (antisense eA*e[5mC]*eA*eG*eT*eT*e[5mC]*eT*eT*e[5mC]*eA*eA*e[5mC]*eT*eG*eG*e[5mC]*eA*eG*e[5mC]*eT*eT) [compound 327896]
% cells aneuploid [4]: 65% | % cells in cell cycle phase G1 [4]: 83% | % cells in cell cycle phase G2/M [4]: 128% | % cells in cell cycle phase S [4]: 103% | % cells in cell cycle phase subG1 [4]: 121% | % cells in cell cycle phase: G1 [5]: 55% | % cells in cell cycle phase: G2/M [5]: 194% | % cells in cell cycle phase: S [5]: 140% | % cells in cell cycle phase: aneuploid [5]: 66% | % cells in cell cycle phase: subG1 [5]: 886% | % cells in cell cycle phase G1 [6]: 103% | % cells in cell cycle phase G2/M [6]: 106% | % cells in cell cycle phase S [6]: 94% | % cells in cell cycle phase aneuploid [6]: 144% | % cells in cell cycle phase subG1 [6]: 95%

327878 (antisense e[5mC]*eT*eA*eG*eT*eG*eG*eT*e[5mC]*e[5mC]*eT*eA*eA*eA*e[5mC]*eA*eT*eT*eT*e[5mC]*eA*e[5mC]) [compound 327878]
% cells aneuploid [4]: 73% | % cells in cell cycle phase G1 [4]: 96% | % cells in cell cycle phase G2/M [4]: 122% | % cells in cell cycle phase S [4]: 94% | % cells in cell cycle phase subG1 [4]: 124% | % cells in cell cycle phase: G1 [5]: 89% | % cells in cell cycle phase: G2/M [5]: 114% | % cells in cell cycle phase: S [5]: 119% | % cells in cell cycle phase: aneuploid [5]: 92% | % cells in cell cycle phase: subG1 [5]: 50%

327907 (antisense eA*eG*e[5mC]*e[5mC]*eT*eA*eT*e[5mC]*e[5mC]*eT*eG*eG*eA*eT*eT*eA*e[5mC]*eT*eT*eG*eA*eA) [compound 327907]
% cells aneuploid [4]: 75% | % cells in cell cycle phase G1 [4]: 119% | % cells in cell cycle phase G2/M [4]: 111% | % cells in cell cycle phase S [4]: 77% | % cells in cell cycle phase subG1 [4]: 224% | % cells in cell cycle phase: G1 [5]: 92% | % cells in cell cycle phase: G2/M [5]: 115% | % cells in cell cycle phase: S [5]: 111% | % cells in cell cycle phase: aneuploid [5]: 94% | % cells in cell cycle phase: subG1 [5]: 116%
